The text below walks through data of US10155768B2, “Fused pyrimidine compound or salt thereof” (TAIHO PHARMACEUTICAL CO., LTD., priority 2016, dated 2018).

Read-outs that look alike come from different tables or passages of the source.

For orientation: IC50 means the point on the concentration scale where inhibition reaches its midpoint.

For series [1] the following is noted: mouse, microsomes, 0.5 h.
Experimental: (§1) Solutions of the test compounds in DMSO/acetonitrile (the final concentration of each test compound was 1 μM, the final concentration of DMSO was 0.01%, and the final concentration of acetonitrile was 1%) were individually added to a liver microsome mixture solution (mouse liver microsome with a final concentration of 0.25 mg/mL, a potassium phosphate buffer with a final concentration of 100 mM, and magnesium chloride with a final concentration of 3 mM), and each mixture was pre-incubated at 37° C. for 5 minutes. […] After incubation at 37° C. for 30 minutes, a double amount of ethanol was added thereto to terminate the reaction, thereby obtaining post-reaction samples. A double amount of ethanol was added to each of the remaining mixture solutions, and a NADPH-generating system was further added thereto, thereby obtaining pre-reaction samples. The pre-reaction samples and post-reaction samples were centrifuged at 2000×g, and their supernatant was filtered through a glass filter. Each filtrate was then introduced into LC-MS/MS, and MS/MS peaks of the test compounds were detected. From the ratio of the post-reaction MS/MS peak to the pre-reaction MS/MS peak of the test compounds, the percentage of the remaining test compounds (remaining %) was calculated.
For series [2], the target named is recombinant human RET protein (Homo sapiens (Human), UniProt P07949). The experiment in a line: Measurement of inhibitory activity against RET (in vitro). The series is classed as biochemical. The note with it: ATP 10 μM.
Sequence of recombinant human RET protein (P07949 29-1114): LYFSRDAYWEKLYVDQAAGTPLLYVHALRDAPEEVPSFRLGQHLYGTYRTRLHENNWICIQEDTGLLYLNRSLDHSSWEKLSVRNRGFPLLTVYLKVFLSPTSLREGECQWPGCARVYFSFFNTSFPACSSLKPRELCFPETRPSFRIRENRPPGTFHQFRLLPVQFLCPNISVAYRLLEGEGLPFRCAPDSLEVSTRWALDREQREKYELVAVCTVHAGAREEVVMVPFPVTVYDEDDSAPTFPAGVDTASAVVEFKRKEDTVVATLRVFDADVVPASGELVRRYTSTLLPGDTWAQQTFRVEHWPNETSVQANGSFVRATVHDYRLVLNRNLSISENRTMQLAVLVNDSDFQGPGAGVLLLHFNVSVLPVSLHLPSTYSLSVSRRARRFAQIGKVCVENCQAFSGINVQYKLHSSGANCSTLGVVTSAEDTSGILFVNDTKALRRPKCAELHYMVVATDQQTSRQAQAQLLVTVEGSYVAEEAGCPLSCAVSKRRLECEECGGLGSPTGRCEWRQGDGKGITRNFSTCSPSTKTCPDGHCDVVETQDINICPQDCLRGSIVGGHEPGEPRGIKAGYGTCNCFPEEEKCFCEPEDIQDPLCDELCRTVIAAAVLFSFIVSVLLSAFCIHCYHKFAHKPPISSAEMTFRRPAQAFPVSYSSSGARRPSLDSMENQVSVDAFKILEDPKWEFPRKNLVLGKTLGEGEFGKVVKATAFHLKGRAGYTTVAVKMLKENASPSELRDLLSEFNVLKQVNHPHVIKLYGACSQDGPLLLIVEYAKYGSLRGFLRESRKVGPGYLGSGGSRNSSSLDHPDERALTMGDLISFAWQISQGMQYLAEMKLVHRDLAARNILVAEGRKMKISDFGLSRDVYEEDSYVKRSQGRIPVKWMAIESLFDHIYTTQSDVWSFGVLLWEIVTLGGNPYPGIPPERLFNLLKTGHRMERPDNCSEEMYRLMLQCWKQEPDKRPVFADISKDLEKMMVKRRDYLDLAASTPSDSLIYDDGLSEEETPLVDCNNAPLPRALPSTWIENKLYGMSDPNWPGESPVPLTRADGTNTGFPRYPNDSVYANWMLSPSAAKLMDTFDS
Series [3] deals with LC-2/ad cells (a human lung adenocarcinoma cell line with CCDC6-RET fusion gene). The experiment in a line: Cell growth inhibitory effect (2), LC-2/ad cells. The series is classed as cell-based. The note with it: 168 h, read-out: LC-2/ad Cell GI50.
Experimental: An in vitro cytotoxicity test was performed on LC-2/ad cells (a human lung adenocarcinoma cell line with CCDC6-RET fusion gene).
(§2) After shaking, each culture was allowed to stand at room temperature for 15 minutes, and the chemiluminescence was measured with a luminometer to use it as an index of the number of viable cells.
In series [4] the test system is TT cells (human thyroid cancer cell line with RET activating mutation). The series is described as follows: In vivo antitumor effect, mice subcutaneously implanted with TT cells. The note with it: 100 mg/kg/day oral, 14 days. Also noted: species or system BALB/cA Jcl-nu/nu male mice.
Experimental: Human thyroid cancer cell lines (TT) were subcutaneously implanted into the right frank of 6- to 7-week-old BALB/cA Jcl-nu/nu male mice. After about 2 to 3 weeks from the cell implantation, the length (nm) and the width (mm) of tumors found in mouse bodies were measured. […] The day on which the mice were divided into groups was determined to be the “grouping day” (day 0 or 1).
A control group was administered a solvent (0.5% HPMC/0.1N HCl).
To determine the index of the antitumor effect, TV of each drug-administrated group was measured on day 15, and the tumor volume on day 15 relative to the tumor volume on the grouping day (day 0 or 1) (relative tumor volume: RTV) and T/C (%) were calculated from the following equations, and the antitumor effect was evaluated. […] TV(mm^3)=(length×width^2)/2 RTV=(TV on day 15)/(TV on day 0 or day 1) T/C(%)=(the mean RTV of a test compound treatment group)/(the mean RTV of the control group)×100
In series [5] the test system is TT cells (a human thyroid cancer cell line with RET activating mutation (C634W)). The experiment in a line: Cell growth inhibitory effect (1), TT cells. In kind it is cell-based. Particulars: 168 h, read-out: TT Cell GI50 (nM).
Experimental: An in vitro cytotoxicity test was performed on TT cells (a human thyroid cancer cell line with RET activating mutation (C634W)).
as §2
C: The absorbance of the well to which a test compound was not added. Day 1: The day on which a test compound was added. Day 8: The day on which evaluation was performed.
Series [6] in a line: Evaluation of stability in liver microsome. The note with it: mouse liver microsome 0.25 mg/mL, 1 μM test compound, 37° C. for 30 minutes. On the technique in general: Liver microsomes are vesicles of endoplasmic reticulum, rich in cytochrome P450 enzymes.
Experimental: as §1

Turning to `C#Cc1ccc(NC(=O)c2cn(C3(C)CC3)c3ncnc(N)c23)cc1` [Example 108, 4-amino-N-(4-ethynylphenyl)-7-(1-methylcyclopropyl)-7H-pyrrolo[2,3-d]pyrimidine-5-carboxamide], in series [1], the “Remaining (%)” value turned out to be 60%. On the same count and under the same terms, for `C/C=C/c1ccc(NC(=O)c2cn(C3(C)CC3)c3ncnc(N)c23)cc1` [Example 107, (E)-4-amino-7-(1-methylcyclopropyl)-N-(4-(prop-1-en-1-yl)phenyl)-7H-pyrrolo[2,3-d]pyrimidine-5-carboxamide] the value was 63%. With `C/C=C/c1ccc(NC(=O)c2c(OCC)n(C3(C)CC3)c3ncnc(N)c23)cc1` [Example 117, (E)-4-amino-6-ethoxy-7-(1-methylcyclopropyl)-N-(4-(prop-1-en-1-yl)phenyl)-7H-pyrrolo[2,3-d]pyrimidine-5-carboxamide], the “Remaining (%)” value in series [1] (1 μM) stood at 53%. In the case of `COCc1ccc(NC(=O)c2nn(-c3ccccc3)c3ncnc(N)c23)cc1` [Comound 5 of Comparative Examples, 4-amino-N-(4-(methoxymethyl)phenyl)-1-phenyl-1H-pyrazolo[3,4-d]pyrimidine-3-carboxamide], in series [2], the IC50 is more than 5 µM. `COCc1ccc(NC(=O)c2c(C#CCN3CCOCC3)n(C3(C)CC3)c3ncnc(N)c23)cc1` [Example 85, 4-amino-N-[4-(methoxymethyl)phenyl]-7-(1-methylcyclopropyl)-6-(3-morpholinoprop-1-yn-1-yl)-7H-pyrrolo[2,3-d]pyrimidine-5-carboxamide]: the GI50 in series [3] is 0.0177 µM; in series [5] it was 10 nM. The “T/C (%)” value in series [4] (day 15) stood at 23%. In series [4] (day 15), the “TV (mm^3) Day 15 Mean ± SE” value worked out at 139.42 ± 10.17 mm^3. In addition, the “RTV Day 15 Mean ± SE” value in series [4] (day 15 relative to day 0) was 0.87 ± 0.13. For the same molecule, in series [1], the “Remaining (%)” value came to 79%. For the molecule `COCc1ccc(NC(=O)c2c(C#CC3CCOCC3)n(C3(C)CC3)c3ncnc(N)c23)cc1F` [Example 205, 4-amino-N-(3-fluoro-4-(methoxymethyl)phenyl)-7-(1-methylcyclopropyl)-6-((tetrahydro-2H-pyran-4-yl)ethynyl)-7H-pyrrolo[2,3-d]pyrimidine-5-carboxamide], the “Remaining (%)” value in series [6] came out at 58%.

As for `COCc1ccc(NC(=O)c2c(C#CC(C)(C)O)n(C3(C)CC3)c3ncnc(N)c23)cc1` [Example 174, 4-amino-6-(3-hydroxy-3-methylbut-1-yn-1-yl)-N-(4-(methoxymethyl)phenyl)-7-(1-methylcyclopropyl)-7H-pyrrolo[2,3-d]pyrimidine-5-carboxamide], the “Remaining (%)” value in series [6] turned out to be 72%. Same read-out and setting: in the case of `COCc1ccc(NC(=O)c2c(C#Cc3cnn(C(C)C)c3)n(C3(C)CC3)c3ncnc(N)c23)cc1` [Example 144, 4-amino-6-((1-isopropyl-1H-pyrazol-4-yl)ethynyl)-N-(4-(methoxymethyl)phenyl)-7-(1-methylcyclopropyl)-7H-pyrrolo[2,3-d]pyrimidine-5-carboxamide] it was 79%; in that of `COCc1ccc(NC(=O)c2c(C#CC(C)(C)N)n(C3(C)CC3)c3ncnc(N)c23)cc1` [Example 134, 4-amino-6-(3-amino-3-methylbut-1-yn-1-yl)-N-(4-(methoxymethyl)phenyl)-7-(1-methylcyclopropyl)-7H-pyrrolo[2,3-d]pyrimidine-5-carboxamide], 79%; in that of `COCc1ccc(NC(=O)c2c(OCC3CCOC3)n(C3(C)CC3)c3ncnc(N)c23)cc1` (stereo not drawn) [Example 101, 4-amino-N-(4-(methoxymethyl)phenyl)-7-(1methylcyclopropyl)-6-((tetrahydrofuran-3-yl)methoxy)-7H-pyrrolo[2,3-d]pyrimidine-5-carboxamide], 68%. The same measure, in the same setting: for `COCc1ccc(NC(=O)c2c(-c3cn[nH]c3)n(C3(C)CC3)c3ncnc(N)c23)cc1` [Example 167, 4-amino-N-(4-(methoxymethyl)phenyl)-7-(1-methylcyclopropyl)-6-(1H-pyrazol-4-yl)-7H-pyrrolo[2,3-d]pyrimidine-5-carboxamide] the value was 80%.

As for `COCc1ccc(NC(=O)c2c(OC[C@H]3CCCO3)n(C3(C)CC3)c3ncnc(N)c23)cc1` [Example 89, (R)-4-amino-N-[4-(methoxymethyl)phenyl]-7-(1-methylcyclopropyl)-6-((tetrahydrofuran-2-yl)methoxy)-7H-pyrrolo[2,3-d]pyrimidine-5-carboxamide], the “Remaining (%)” value in series [6] came to 69%. Same read-out and setting: for `COCc1ccc(NC(=O)c2cn(C(C)(C)CF)c3ncnc(N)c23)cc1F` [Example 41, 4-amino-7-(1-fluoro-2-methylpropan-2-yl)-N-(3-fluoro-4-(methoxymethyl)phenyl)-7H-pyrrolo[2,3-d]pyrimidine-5-carboxamide] the value was 56%. The same measure, in the same setting: for `COCc1ccc(NC(=O)c2c(F)n(C3(C)CC3)c3ncnc(N)c23)cc1` [Example 69, 4-amino-6-fluoro-N-(4-(methoxymethyl)phenyl)-7-(1-methylcyclopropyl)-7H-pyrrolo[2,3-d]pyrimidine-5-carboxamide] the value was 69%; for `COCc1ccc(NC(=O)c2c(C(C)O)n(C3(C)CC3)c3ncnc(N)c23)cc1` (stereo not drawn) [Example 204, 4-amino-6-(1-hydroxyethyl)-N-(4-(methoxymethyl)phenyl)-7-(1-methylcyclopropyl)-7H-pyrrolo[2,3-d]pyrimidine-5-carboxamide], 83%; for `COCc1ccc(NC(=O)c2c(-c3cncnc3)n(C3(C)CC3)c3ncnc(N)c23)cc1` [Example 194, 4-amino-N-(4-(methoxymethyl)phenyl)-7-(1-methylcyclopropyl)-6-(pyrimidin-5-yl)-7H-pyrrolo[2,3-d]pyrimidine-5-carboxamide], 67%.
